From PMC11019538, “Biophysics-Guided Lead Discovery of HBV Capsid Assembly Modifiers” (ACS Infectious Diseases, 2024)
Like-named read-outs stand apart in the source and are kept apart here.

Experiments:
[1] = system: human peripheral blood mononuclear (PBM) cells; assay: MTT cytotoxicity, PBM cells; assay type: cell-based
Experimental: (§1) Human peripheral blood mononuclear (PBM), T lymphoblast CEM-CCRF (herein referred to as CEM cells), African green monkey kidney (Vero), or human liver carcinoma (HepG2) cells were tested via MTT assay using the CellTiter 96 Non-Radioactive Cell Proliferation (Promega) kit as previously described.[63]

[2] = system: HBV DNA replication in HepAD38 cells; assay: HBV DNA replication inhibition assay in HepAD38 cells (7 days, PCR of supernatant DNA); assay type: cell-based, hepatitis B virus; conditions: HepAD38 cells; for HBV DNA inhibition (%) at 10 µM: first round of selected compounds
Experimental: HepAD38 cells were seeded at 50,000 cells/well in collagen-coated 96-well plates. […] The experiment lasted 7 days. On day 7, total DNA was purified from the supernatant using a commercially available kit (DNeasy 96 Blood & Tissue kit, Qiagen). The HBV DNA was amplified in a polymerase chain reaction assay using LightCycler 480 II (Roche), as previously described.[63] All samples were tested in duplicate.

[3] = system: human liver carcinoma (HepG2) cells; assay: MTT cytotoxicity, HepG2 cells; assay type: cell-based; conditions: HepG2 cells
Experimental: as §1

[4] = system: African green monkey kidney (Vero) cells; assay: MTT cytotoxicity, Vero cells; assay type: cell-based; conditions: Vero cells
Experimental: as §1

[5] = system: T lymphoblast CEM-CCRF (CEM) cells; assay: MTT cytotoxicity, CEM cells; assay type: cell-based, human
Experimental: as §1

[6] = trial 1, read-out: EC50, trial 1
[7] = trial 2, read-out: EC50, trial 2

Structure (SMILES): CCN1CCN(C(=O)c2ccc(-c3nc4ccccc4nc3-c3ccccc3)cc2)CC1 [GT-30]
- CC50 [1]: 60 µM
- % HBV DNA Inh. at 10 μM, trial 1 ([2]; trial 1): < 1%
- % HBV DNA Inh. at 10 μM, trial 2 ([2]; trial 2): < 1%
- EC50 [2, 6]: > 10 µM
- EC50 [2, 7]: > 10 µM
- CC50 [3]: 34 µM
- CC50 [4]: 81 µM
- CC50 [5]: 32 µM

Structure (SMILES): CC(NC(=O)c1ccccc1)c1ccccn1 (centres unmarked) [GT-25]
- CC50 [1]: > 100 µM
- HBV DNA inhibition (%) at 10 µM [2]: < 1%
- CC50 [3]: > 100 µM
- CC50 [4]: > 100 µM
- CC50 [5]: > 100 µM

Structure (SMILES): Oc1c(C(Nc2ccccc2)c2ccccc2)ccc2cccnc12 (centres unmarked) [GT-48]
- CC50 [1]: 20 µM
- % HBV DNA Inh. at 10 μM, trial 1 ([2]; trial 1): < 1%
- % HBV DNA Inh. at 10 μM, trial 2 ([2]; trial 2): < 1%
- EC50 [2, 6]: > 10 µM
- EC50 [2, 7]: > 10 µM
- CC50 [3]: 34 µM
- CC50 [4]: 4.5 µM
- CC50 [5]: 3.4 µM

Structure (SMILES): CC(=O)N1CCC(NCc2nc(-c3ccc(C)cc3)c(-c3ccccn3)[nH]2)CC1 [GT-44]
- CC50 [1]: 64 µM
- % HBV DNA Inh. at 10 μM, trial 1 ([2]; trial 1): 37%
- % HBV DNA Inh. at 10 μM, trial 2 ([2]; trial 2): 37%
- EC50 [2, 6]: > 10 µM
- EC50 [2, 7]: > 10 µM
- CC50 [3]: 70 µM
- CC50 [4]: > 100 µM
- % cytotoxicity (MTT) at 100 µM ([4]; 100 µM): 54%
- CC50 [5]: 63 µM

Structure (SMILES): O=C(NCc1cccnc1)C1CCNCC1 [GT-23]
- CC50 [1]: > 100 µM
- HBV DNA inhibition (%) at 10 µM [2]: < 1%
- CC50 [3]: > 100 µM
- CC50 [4]: > 100 µM
- CC50 [5]: > 100 µM

Structure (SMILES): Cc1cc(-c2ccccc2)nc(C#N)c1C#N [GT-27]
- CC50 [1]: 14.7 µM
- HBV DNA inhibition (%) at 10 µM [2]: < 1%
- CC50 [3]: 41.7 µM
- CC50 [4]: 27.3 µM
- CC50 [5]: 4 µM

Structure (SMILES): CNc1cc(C#N)nc(-c2ccccc2)n1 [GT-28]
- CC50 [1]: 24 µM
- HBV DNA inhibition (%) at 10 µM [2]: < 1%
- CC50 [3]: > 100 µM
- CC50 [4]: > 100 µM
- CC50 [5]: 63.8 µM

Structure (SMILES): Cc1nc(-c2ccccc2)c(Cc2ccccc2O)c(=O)[nH]1 [GT-7]
- CC50 [1]: > 100 µM
- HBV DNA inhibition (%) at 10 µM [2]: < 1%
- CC50 [3]: > 100 µM
- CC50 [4]: > 100 µM
- CC50 [5]: > 100 µM

Structure (SMILES): Fc1ccccc1CNCc1ccccn1 [GT-14]
- CC50 [1]: > 100 µM
- HBV DNA inhibition (%) at 10 µM [2]: < 1%
- CC50 [3]: > 100 µM
- CC50 [4]: > 100 µM
- CC50 [5]: > 100 µM

Structure (SMILES): NCc1cccc(Oc2ccccc2)c1 [GT-12]
- CC50 [1]: > 100 µM
- HBV DNA inhibition (%) at 10 µM [2]: < 1%
- CC50 [3]: > 100 µM
- CC50 [4]: > 100 µM
- CC50 [5]: 17 µM

Structure (SMILES): COc1cc(OC)c2cc(-c3nc4ccccc4[nH]3)c(-c3ccc(C)cc3)nc2c1 [GT-35]
- CC50 [1]: > 100 µM
- percent cytotoxicity (cell growth inhibition) at 100 µM [1]: 14%
- % HBV DNA Inh. at 10 μM, trial 1 ([2]; trial 1): 36%
- % HBV DNA Inh. at 10 μM, trial 2 ([2]; trial 2): 36%
- EC50 [2, 6]: > 10 µM
- EC50 [2, 7]: > 10 µM
- CC50 [3]: 63 µM
- CC50 [4]: 42 µM
- CC50 [5]: > 100 µM
- % cytotoxicity at 100 µM (MTT), CEM cells [5]: 49%

Structure (SMILES): O=C(NCCN1CCOCC1)c1ccc2nc(-c3ccccc3)c(-c3ccccc3)nc2c1 [GT-36]
- CC50 [1]: 10 µM
- % HBV DNA Inh. at 10 μM, trial 1 ([2]; trial 1): 11%
- % HBV DNA Inh. at 10 μM, trial 2 ([2]; trial 2): 11%
- EC50 [2, 6]: > 10 µM
- EC50 [2, 7]: > 10 µM
- CC50 [3]: 29 µM
- CC50 [4]: 31 µM
- CC50 [5]: 18 µM

Structure (SMILES): O=C(NCCn1ccnc1)c1ccccn1 [GT-26]
- CC50 [1]: > 100 µM
- HBV DNA inhibition (%) at 10 µM [2]: < 1%
- CC50 [3]: > 100 µM
- CC50 [4]: > 100 µM
- CC50 [5]: > 100 µM

Structure (SMILES): O=C(OCc1ccccc1)c1cccnc1 [GT-16]
- CC50 [1]: > 100 µM
- HBV DNA inhibition (%) at 10 µM [2]: 1.7%
- CC50 [3]: > 100 µM
- CC50 [4]: > 100 µM
- CC50 [5]: > 100 µM

Structure (SMILES): Cc1ccc(C(N)c2ccncc2)cc1 (centres unmarked) [GT-20]
- CC50 [1]: > 100 µM
- HBV DNA inhibition (%) at 10 µM [2]: < 1%
- CC50 [3]: > 100 µM
- CC50 [4]: > 100 µM
- CC50 [5]: > 100 µM

Structure (SMILES): N#CC(c1ccccc1)C(C(Cc1ccccc1)=NO)c1ccccc1 (centres unmarked) [GT-11]
- CC50 [1]: 63.9 µM
- HBV DNA inhibition (%) at 10 µM [2]: < 1%
- CC50 [3]: 31.6 µM
- CC50 [4]: 18.9 µM
- CC50 [5]: 13.3 µM

Structure (SMILES): COc1ccc(-c2cc(C(=O)Oc3cccc(-c4cnc5ccccc5n4)c3)c3ccccc3n2)cc1 [GT-31]
- CC50 [1]: 86 µM
- % HBV DNA Inh. at 10 μM, trial 1 ([2]; trial 1): < 1%
- % HBV DNA Inh. at 10 μM, trial 2 ([2]; trial 2): < 1%
- EC50 [2, 6]: > 10 µM
- EC50 [2, 7]: > 10 µM
- CC50 [3]: 42 µM
- CC50 [4]: 97 µM
- CC50 [5]: > 100 µM
- % cytotoxicity at 100 µM (MTT), CEM cells [5]: 36%

Structure (SMILES): NCc1ccc(-c2ccccc2F)o1 [GT-19]
- CC50 [1]: > 100 µM
- HBV DNA inhibition (%) at 10 µM [2]: < 1%
- CC50 [3]: > 100 µM
- CC50 [4]: > 100 µM
- CC50 [5]: > 100 µM

Structure (SMILES): Cc1ccc(-c2nc(CNC(=O)C3CCOC3)[nH]c2-c2ccccn2)cc1 (centres unmarked) [GT-43]
- CC50 [1]: 42 µM
- % HBV DNA Inh. at 10 μM, trial 1 ([2]; trial 1): 4.7%
- % HBV DNA Inh. at 10 μM, trial 2 ([2]; trial 2): 4.7%
- EC50 [2, 6]: > 10 µM
- EC50 [2, 7]: > 10 µM
- CC50 [3]: 29 µM
- CC50 [4]: 19 µM
- CC50 [5]: 30 µM

Structure (SMILES): NCc1ccc(N2CCC(CO)CC2)cc1 [GT-17]
- CC50 [1]: > 100 µM
- HBV DNA inhibition (%) at 10 µM [2]: < 1%
- CC50 [3]: > 100 µM
- CC50 [4]: > 100 µM
- CC50 [5]: > 100 µM

Structure (SMILES): OC(Cn1cnc(-c2ccccc2)c1-c1cc2ccccc2[nH]1)c1cccnc1 (centres unmarked) [GT-41]
- CC50 [1]: 27 µM
- % HBV DNA Inh. at 10 μM, trial 1 ([2]; trial 1): < 1%
- % HBV DNA Inh. at 10 μM, trial 2 ([2]; trial 2): < 1%
- EC50 [2, 6]: > 10 µM
- EC50 [2, 7]: > 10 µM
- CC50 [3]: 10 µM
- CC50 [4]: 18 µM
- CC50 [5]: 12 µM

Structure (SMILES): Cc1ccc(CC#N)c(-c2c(CC#N)ccc(C)c2C)c1C [GT-9]
- CC50 [1]: > 100 µM
- HBV DNA inhibition (%) at 10 µM [2]: 34.6%
- CC50 [3]: 55.3 µM
- CC50 [4]: > 100 µM
- CC50 [5]: > 100 µM

Structure (SMILES): CC(N)c1ccc(-c2ccc(F)cc2)cc1 (centres unmarked) [GT-29]
- CC50 [1]: 25 µM
- HBV DNA inhibition (%) at 10 µM [2]: < 1%
- CC50 [3]: 12.3 µM
- CC50 [4]: 21 µM
- CC50 [5]: 35.7 µM

Structure (SMILES): CC(NC(=O)c1cccnc1)c1ccccc1 (centres unmarked) [GT-18]
- CC50 [1]: > 100 µM
- HBV DNA inhibition (%) at 10 µM [2]: < 1%
- CC50 [3]: > 100 µM
- CC50 [4]: > 100 µM
- CC50 [5]: > 100 µM

Structure (SMILES): Clc1ccccc1C=Cc1ccnc2ccccc12 [GT-3]
- CC50 [1]: 34 µM
- HBV DNA inhibition (%) at 10 µM [2]: 40.4%
- CC50 [3]: 51.2 µM
- CC50 [4]: 27 µM
- CC50 [5]: 15.4 µM

Structure (SMILES): COc1ccc(F)c(Cn2cnc(-c3ccccc3)c2-c2c[nH]cn2)c1F [GT-38]
- CC50 [1]: > 100 µM
- percent cytotoxicity (cell growth inhibition) at 100 µM [1]: 24%
- % HBV DNA Inh. at 10 μM, trial 1 ([2]; trial 1): 45%
- % HBV DNA Inh. at 10 μM, trial 2 ([2]; trial 2): 45%
- EC50 [2, 6]: > 10 µM
- EC50 [2, 7]: > 10 µM
- CC50 [3]: 24 µM
- CC50 [4]: 48 µM
- CC50 [5]: 62 µM

Structure (SMILES): c1ccc(Cn2cc(-c3cccnc3)c(-c3nc(-c4ccccc4)c(-c4ccccc4)[nH]3)n2)cc1 [GT-34]
- CC50 [1]: 59 µM
- % HBV DNA Inh. at 10 μM, trial 1 ([2]; trial 1): < 1%
- % HBV DNA Inh. at 10 μM, trial 2 ([2]; trial 2): < 1%
- EC50 [2, 6]: > 10 µM
- EC50 [2, 7]: > 10 µM
- CC50 [3]: 16 µM
- CC50 [4]: 14 µM
- CC50 [5]: 11 µM

Structure (SMILES): Nc1ccn([C@@H]2CS[C@H](CO)O2)c(=O)n1 [3TC, reference compound]
- HBV DNA inhibition (%) at 10 µM [2]: 97%
- % HBV DNA Inh. at 10 μM, trial 1 ([2]; trial 1): 82%

Structure (SMILES): C=CC1CN2CCC1CC2C(O)c1ccnc2ccc(OC)cc12 (centres unmarked) [GT-1]
- HBV DNA inhibition (%) at 10 µM [2]: < 1%
